Measurements: US9006185B2, “Use of cell-permeable peptide inhibitors of the JNK signal transduction pathway for the treatment of various diseases” (Xigen Inflammation Ltd., priority 2008, dated 2015)
Read-outs that look alike come from different tables or passages of the source. Square brackets hold non-standard residues; d marks the D form. Ends that are not written are not given here.

Experiments:
JNK = conditions: JBDs; cited from earlier work
TC-3 cells [1] = experiment: Cellular import of fluorescein-labeled TAT and TAT-IB1(s) peptides; assay type: cell-based
Procedure: The ability of the L- and D-enantiomeric forms of TAT and TAT-IB1(s) peptides (“TAT-IB peptides”) to enter cells was evaluated. L-TAT, D-TAT, L-TAT-IB1(s), and D-TAT-IB1(s) peptides [SEQ ID NOs: 5, 6, 9 and 12, respectively] were labeled by N-terminal addition of a glycine residue conjugated to fluorescein. Labeled peptides (1 μM) were added to TC-3 cell cultures, which were maintained as described in Example 3. At predetermined times cells were washed with PBS and fixed for five minutes in ice-cold methanol-acetone (1:1) before being examined under a fluorescence microscope. Fluorescein-labeled BSA (1 μM, 12 moles/mole BSA) was used as a control.
Little to no signal was present at 48 hours.
Fluorescent signals from these all-D retro-inverso peptides were still very strong 1 week later, and the signal was only slightly diminished at 2 weeks post treatment.

[2] = system: primary embryonic cultures and differentiated PC12 cells; conditions: after trophic withdrawal; cited from earlier work
[3] = system: chick embryonic dorsal root ganglion, sympathetic, ciliary and motor neurons; conditions: cited from earlier work
gerbil = conditions: transient global ischemia; cited from earlier work
TC-3 cells [4] = experiment: IL-1 induced pancreatic beta-cell death, peptide treatment; assay type: cell-based; conditions: one single addition 1 μM, two days of incubation with IL-1
Procedure: Inhibition of IL-1 induced pancreatic beta-cell death by the D-TAT-IB1(s) peptide was analyzed. TC-3 cells were incubated as described above for 30 minutes with one single addition of the indicated peptides (1, μM), then IL-1 (10 ng/ml) was added.
Apoptotic cells were then counted after two days of incubation with IL-1 by use of Propidium Iodide and Hoechst 33342 nuclear staining. A minimum of 1,000 cells were counted for each experiment. Standard Error of the Means (SEM) are indicated, n=5.
Long term inhibition of IL-1P induced cell-death by the D-TAT-IB1 peptide was also analyzed. TC-3 cells were incubated as above for 30 minutes with one single addition of the indicated peptides (1 μM), then IL-1 (10 ng/ml) was added, followed by addition of the cytokine every two days. Apoptotic cells were then counted after 15 days of incubation with IL-1 by use of propidium iodide and Hoechst 33342 nuclear staining. […] A minimum of 1.000 cells were counted for each experiment.

[5] = fluorescein labeled, 1 μM, TC-3 cells

PGTGCGDTYRPKRPTTLNLFPQVPRSQDT (Description of sequence peptide IB1-long (see Table 1))
efficiency in binding JNK relative to c-Jun or ATF2 (JNK): approximately 100 fold

IPSPSVEEPHKHRPTTLRLTTLGAQDS (Description of sequence Peptide IB2-long (see Table 1))
efficiency in binding JNK relative to c-Jun or ATF2 (JNK): approximately 100 fold

GRKKRRQRRRPPRPKRPTTLNLFPQVPRSQD [L-TAT-IB1(s)]
entry into cells (fluorescence microscopy) (TC-3 cells [1]; [5]): efficiently and rapidly (less than five minutes) entered cells

CCSCc1ccc2c(c1)c1c3c(c4c5cc(CSCC)ccc5n5c4c1n2[C@H]1C[C@](O)(C(=O)OC)[C@]5(C)O1)CNC3=O [CEP-1347]
neuronal survival [2]: promotes neuronal survival at dosages that inhibit activation of the c-Jun amino-terminal kinases
long term survival of cultured neurons [3]: promote long term-survival

Fluorescein-labeled BSA: fluorescein labeled bovine serum albumin, 12 moles fluorescein/mole BSA, control [reference compound]
entry into cells (fluorescence microscopy) (TC-3 cells [1]): did not enter the cells

GRKKRRQRRR (Description of sequence Peptide L-TAT (see Table 1))
entry into cells (fluorescence microscopy) (TC-3 cells [1]; [5]): efficiently and rapidly (less than five minutes) entered cells

RRRQRRKKRG (D-amino acids; Description of sequence Peptide D-TAT (see Table 1))
entry into cells (fluorescence microscopy) (TC-3 cells [1]): efficiently and rapidly (less than five minutes) entered cells
stability inside the cells (TC-3 cells [1]): extremely stable inside the cells

N#CC(c1ccnc(NCCc2cccnc2)n1)c1nc2ccccc2s1 (centres unmarked) [AS601245]
delayed loss of hippocampal CA1 neurons (gerbil): significant protection against the delayed loss of hippocampal CA1 neurons

TDQSRPVQPFLNLTTPRKPRYTDPPRRRQRRKKRG (H-[dT][dD][dQ][dS][dR][dP][dV][dQ][dP][dF][dL][dN][dL][dT][dT][dP][dR][dK][dP][dR][dY][dT][dD][dP][dP][dR][dR][dR][dQ][dR][dR][dK][dK][dR]G-OH) [D-TAT-IB1]
IL-1 induced apoptosis (TC-3 cells [4]): decreased IL-1 induced apoptosis to a similar extent as L-TAT-IB peptides
